Experimental data taken from the NIST ThermoML archive (doi:10.1021/je060243s).
Where “and” joins values, the source holds several entries; their conditions need not be identical. Equal values may be shown once.

Assay: wn = mass fraction of the nth substance listed
Details: Liquid, Pulse-echo method, w2 = 0.5

FC(F)C(F)(F)F [pentafluoroethane] + FCF
speed of sound
Details | 288.2 K | 298.2 K | 308.25 K | 318.17 K | 328.17 K | 338.16 K
1650 kPa | 500.3 m/s | – | – | – | – | –
1680 kPa | – | 440.6 m/s and 440.2 m/s and 440.3 m/s | – | – | – | –
1750 kPa | 501.7 m/s | 441.7 m/s | – | – | – | –
1880 kPa | 503.4 m/s | 444 m/s | – | – | – | –
2010 kPa | 505.1 m/s | 446 m/s | – | – | – | –
2130 kPa | – | 448.2 m/s | – | – | – | –
2170 kPa | – | – | 383.3 m/s and 383.4 m/s | – | – | –
2250 kPa | 508.2 m/s | 450 m/s | 384.9 m/s | – | – | –
2380 kPa | – | – | 387.7 m/s | – | – | –
2510 kPa | 511.3 m/s | 454 m/s | 390.5 m/s | – | – | –
2750 kPa | 514.7 m/s | 457.8 m/s | 395.6 m/s | 323.4 m/s | – | –
2760 kPa | – | – | – | 323.6 m/s | – | –
2880 kPa | – | – | – | 327.2 m/s | – | –
3010 kPa | 517.7 m/s | 461.7 m/s | 400.6 m/s | 330.8 m/s | – | –
3250 kPa | – | – | – | 337.8 m/s | – | –
3470 kPa | – | – | – | – | 257.9 m/s and 258.1 m/s and 258 m/s | –
3500 kPa | 524 m/s | 469.1 m/s | 409.9 m/s | 344.5 m/s | – | –
3590 kPa | – | – | – | – | 263.4 m/s | –
3720 kPa | – | – | – | – | 269.8 m/s | –
3860 kPa | – | – | – | – | 275.4 m/s | –
4000 kPa | 529.7 m/s | 475.9 m/s | 418.9 m/s | 356.6 m/s | 281.3 m/s | –
4250 kPa | – | – | – | – | 290.2 m/s | –
4340 kPa | – | – | – | – | – | 183.3 m/s
4410 kPa | – | – | – | – | – | 189.7 m/s
4500 kPa | 535.6 m/s | 483 m/s | 427.4 m/s | 367.9 m/s | 298.5 m/s | 200.4 m/s
4750 kPa | – | – | – | – | – | 217.6 m/s
5000 kPa | 541.1 m/s | 489.9 m/s | 435.6 m/s | 378.2 m/s | 313.4 m/s | 231.3 m/s
5500 kPa | – | – | – | – | – | 255.4 m/s
6010 kPa | 552 m/s | 502.6 m/s | 450.5 m/s | 397.4 m/s | 339.3 m/s | 273.8 m/s
7010 kPa | 562.3 m/s | 514.4 m/s | 464.7 m/s | 414.5 m/s | 360.6 m/s | 303.5 m/s
8000 kPa | 572.3 m/s | 525.7 m/s | 477.8 m/s | 429.7 m/s | 379.4 m/s | 327.5 m/s
9000 kPa | 582 m/s | 536.4 m/s | 490.2 m/s | 444.1 m/s | 396.7 m/s | 348.4 m/s
10000 kPa | 591.2 m/s | 546.7 m/s | 501.7 m/s | 457.3 m/s | 412.2 m/s | 366.8 m/s
12000 kPa | 608.7 m/s | 566.4 m/s | 523.6 m/s | 481.7 m/s | 440.2 m/s | 398.9 m/s
14000 kPa | 625.1 m/s | 584.5 m/s | 543.5 m/s | 503.8 m/s | 464.8 m/s | 426.3 m/s
16010 kPa | 640.6 m/s | 601.6 m/s and 601.3 m/s | 562.1 m/s | 524.3 m/s | 487.3 m/s | 450.8 m/s
18000 kPa | 655.7 m/s | 617.3 m/s | 579.5 m/s | 543.1 m/s | 507.4 m/s | 472.9 m/s
20000 kPa | 669.7 m/s | 632.4 m/s | 596 m/s | 560.6 m/s | 526.4 m/s | 493.2 m/s
23000 kPa | 689.6 m/s | 653.8 m/s | 619 m/s | 585.3 m/s | 552.3 m/s | 521.1 m/s
26000 kPa | 708.7 m/s | 673.7 m/s | 640 m/s | 607.9 m/s | 576.7 m/s | 546.3 m/s
29010 kPa | 727 m/s | 693 m/s | 660.1 m/s | 628.9 m/s | 598.7 m/s | 569.7 m/s
32000 kPa | 744 m/s | 711.1 m/s | 678.9 m/s | 648.5 m/s | 619.2 m/s | 591.3 m/s
35000 kPa | 760.4 m/s | 728.5 m/s | 697.2 m/s | 667.3 m/s | 638.6 m/s | 611.3 m/s
40000 kPa | 786.1 m/s | 754.9 m/s | 725.2 m/s | 696.7 m/s | 669 m/s | 642.8 m/s
45000 kPa | 810 m/s | 780.3 m/s | 751.3 m/s | 723.8 m/s | 697.4 m/s | 671.7 m/s
50000 kPa | 833 m/s | 803.7 m/s | 775.7 m/s | 749.1 m/s | 723.3 m/s | 698.8 m/s
55000 kPa | 854.6 m/s | 826.3 m/s | 798.8 m/s | 772.8 m/s | 747.8 m/s | 724.1 m/s
60000 kPa | 875.4 m/s | 847.6 m/s | 821 m/s | 795.7 m/s | 770.9 m/s | 747.7 m/s
65000 kPa | 895.5 m/s | 868.2 m/s | 841.9 m/s | 817.3 m/s | 793.1 m/s | 770.1 m/s

Details | speed of sound [m/s]
298.25 K | 440.4
308.25 K | 383.4
318.17 K | 323.4
